Counter-ions that a name gives are not always drawn.
Legend:
[1] = test system: human neutrophils; assay: Fluorescent imaging of extracellular DNA (Sytox Orange microscopy); type: cell-based
Text: (§1) Neutrophil isolation: Neutrophils were isolated from the peripheral blood of healthy donors, under a protocol approved by an institutional ethics committee. All subjects gave written informed consent in accordance with the Declaration of Helsinki. Briefly, whole blood was collected using an anticoagulant (sodium citrate), and isolated as previously described using a Percoll gradient separation of neutrophils from other leukocytes (Modulation of multiple neutrophil functions by preparative methods or trace concentrations of bacterial lipopolysaccharide. Haslett C, et al. Am J Pathol. 1985 April; 119(1): 101-10). Neutrophils were suspended in RPMI, 2% heat-inactivated human plasma, and 10 mM HEPES, pH7.5 (complete RPMI) to a neutrophil specific concentration of 2.2×10^6 neutrophils/ml.
Fluorescent imaging of extracellular DNA for photo-micrograph data: Neutrophils (5×10^5 per well) were spotted on a glass microscope chamber slide (Ibidi) and cells were stimulated for 4 hours as indicated above with F Protein or LPS, at 37° C. in a humidified chamber, and stained with 0.2 μM Sytox Orange for the final 10 minutes. The slides were fixed in 2% formaldehyde (Sigma) for 10 min at room temperature and imaged.

[2] = test system: human neutrophils; assay: Sytox Orange extracellular DNA release (NET) assay; type: cell-based
Text: as §1
First Neutrophil Extracellular Trap (NET) indicating assay: A Sytox Orange extracellular DNA release assay was utilized. For the experiments using DIM from self-emulsifying SMEDDS BR-9001 (i.e., Example 1), purified human neutrophils (2×10^5 per sample) in complete RPMI were allowed to settle in 24-well plates in the presence of DIM from self-emulsifying DIM formulation SMEDDS—BR-9001 (12% DIM) providing experimental DIM concentrations of 1, 3, 10, and 30 μM. Control wells received SMEDDS excipient vehicle mixture alone (diluted to provide excipient mixture concentrations equivalent to excipients present in the 3 and 30 μM DIM experimental wells). Neutrophils (2×10^5 per well) were plated in a black-walled 96-well plate and allowed to settle in the presence of DIM from BR-9001 or excipient vehicle control for 30 min. After 30 minutes neutrophils in wells were stimulated with recombinant fusion protein (F Protein (1 μg/ml, Sino Biologicals) or phenolextracted lipopolysaccharide (LPS; 10 μg/ml; List Biologicals). and 5 μM Sytox Orange (Thermo Fisher) was added and gently mixed. The plate was placed in a prewarmed (37° C.) fluorescence plate reader (BioTek FLX-800) and fluorescence read at excitation/emission of 540/600 every 10 minutes over 4 hours. Following this, 1% saponin was added to lyse neutrophils to provide 100% DNA release for experiments presented in FIGS. 1A and 1B. This allowed results to be presented as proportion of total DNA in these experiments. Otherwise results are reported as relative fluorescent units (FIGS. 3A and 3B). The kinetics or 4-hour results were reported as described (Sec FIGS. 1A and 1B and FIG. 3A).
A second set of experiments were performed using crystalline DIM solubilized in DMSO prior to addition to culture wells. […] The plate was placed in a prewarmed (37° C.) fluorescence plate reader and fluorescence read as above every 10 minutes over 4 hours. […]

[3] = test system: carotid artery thromboses; assay: FeCl3 carotid artery thrombosis in mice, H&E fibrin content; type: in vivo, mice (C57BL6/J); details: DIM treated animals (oral and IV groups)
Protocol: Animals: All mice were of C57BL6/J background. Specific pathogen-free mice were obtained from Envigo, USA. All mice used for experiments were between 11 and 14 weeks old. Each experimental group was weight and sex-matched so that experiments were carried out on male and female mice with similar weight and in equal sex distribution between groups. All procedures were performed on anaesthetized animals using a uniform technique of inhaled Isoflurane combined with supplemental parenteral agents. Animals were sacrificed under deep anesthesia. All animal experiments were carried out according to the guidelines from the Guide for Care and Use of Laboratory Animals and The Public Health Service (PHS) Policy on Humane Care and Use of Laboratory Animals. All experimental procedures performed on animals met the requirements of the Guide for the protection of animals used for scientific purposes. Induction of arterial thrombosis after Ferric Chloride exposure: For thrombus induction in the distal carotid artery in vivo, local application of FeCl3 was used following an established method (Wang et al, 2005, supra). In brief, mice were anesthetized using 2-3% inhaled isoflurane, shifting to lower dose maintenance isoflurane and supplemented with a fixed combination of intra-peritoneal buprenorphine, midazolam and dexmedetomidine. […]

[4] = following oral administration; cited from earlier work
[5] = cited from earlier work; for Log P: table of second active agents; for Log P of Second Active Agent: co-formulation table
[6] = in vivo and in vitro; cited from earlier work

With `c1ccc2c(Cc3c[nH]c4ccccc34)c[nH]c2c1` [DIM, 3,3′-diindolylmethane] the “extracellular DNA positive cells (microscopy)” value ([1]; 3 μM to 30 μM DIM) was “dose response”, the “visualization of extracellular DNA (microscopy)” value ([1]; API (free) DIM, F Protein and LPS, 4 h) was “inhibited visualization of extracellular DNA” and the “delay in DNA release versus absence of DIM” value ([2]; F protein and LPS stimulated neutrophils) was “about 1 hours”. For the same molecule, the IC50 ([2]; Homo sapiens, Neutrophil, free DIM (crystalline, in DMSO), read-out: estimated IC50, inhibition of DNA release) was 3 to 30 µM, the “effect on DNA release (Sytox Orange)” value ([2]; free DIM in DMSO 1, 3, 10, 30 μM, F Protein 1 μg/ml) was “dose-dependent inhibitory effect” and the “spontaneous DNA release” value ([2]; non-stimulated neutrophils) was “did not inhibit”. For the same molecule, the “thrombus composition (H&E) versus Vehicle Control” value [3] was “less compact thrombi, primarily composed of red cells (RBCs), with a minimum of fibrin and lower presence of leukocytes” and the tissue distribution [4] was “concentrates in brain tissue”.
For `COC(=O)/C=C/C(=O)OC` [Dimethyl Fumarate, Dimethyl fumarate], the “Log P” value [5] is given as “Log P - 0.62”.
For `O=c1c2ccccc2[se]n1-c1ccccc1` [Ebselen], the “Log P” value [5] is listed as “Log P - 2.65”.
For `CCCCCCCCc1ccc(CCC(N)(CO)CO)cc1` [Fingolimod], the “Log P of Second Active Agent” value [5] is given as 5.25 and the “Log P” value [5] is given as “Log P - 5.25”.
For `CCCSc1nc(N[C@@H]2C[C@H]2c2ccc(F)c(F)c2)c2nnn([C@@H]3C[C@H](OCCO)[C@@H](O)[C@H]3O)c2n1` [Ticagrelor], the “Log P of Second Active Agent” value [5] is listed as 1.90 and the “Log P” value [5] is listed as “Log P - 1.90”.
In the case of `OCc1c[nH]c2ccccc12` [indole-3-carbinol, 1H-indol-3-ylmethanol], the conversion products [6] is listed as “converts to DIM and LTR”.
In the case of “Anakinra: recombinant and slightly modified version of the human interleukin 1 receptor antagonist protein”, the “Log P” value [5] is listed as “Log P - 2.69”.

Source: patent US12527766B2, “Methods of treating acute coronary syndrome using 3,3′-diindolylmethane” (Boulder BioScience LLC, priority 2020, dated 2026)
